Assay results from publication PMC8640094, “Diaportones A–C: Three New Metabolites From Endophytic Fungus Diaporthe foeniculina BZM-15” (Frontiers in Chemistry, 2021).

How the values were obtained:
normal cell line LX-2 = experiment: MTT cytotoxicity assay, normal cell line LX-2; assay type: cell-based; conditions: for inhibition at 1 µM / inhibition at 2 µM / inhibition at 4 µM / inhibition at 8 µM / inhibition at 16 µM / inhibition at 32 µM / inhibition at 64 µM / inhibition at 128 µM / IC50: 72 h; for inhibition at 1 µM: LX-2, c 1.00 μM; for inhibition at 1 µM / inhibition at 2 µM / inhibition at 4 µM / inhibition at 8 µM / inhibition at 16 µM / inhibition at 32 µM / inhibition at 64 µM / inhibition at 128 µM: three replicates; for inhibition at 2 µM: LX-2, c 2.00 μM; for inhibition at 4 µM: LX-2, c 4.00 μM; for inhibition at 8 µM: LX-2, c 8.00 μM; for inhibition at 16 µM: LX-2, c 16.00 μM; for inhibition at 32 µM: LX-2, c 32.00 μM; for inhibition at 64 µM: LX-2, c 64.00 μM; for inhibition at 128 µM: LX-2, c 128.00 μM; for IC50: MTT, mean ± SD (n = 3); for activity on the normal cell line LX-2: in words
Protocol: (§1) The cytotoxicity of all compounds against three human tumor cell lines, SF-268 (CNS cancer), MCF-7 (breast cancer), and HepG2 (hepatoma cancer), and normal cell line LX-2 was tested using the MTT assay. […] All cells were seeded into 96-well plates at 5 × 10^4 cells/ml and incubated at 37°C under a 5% CO2 atmosphere for 24 h. Then, the tested compounds were added. After 72 h, MTT solution was added into each well, which was further incubated. The cell-free supernatant was removed and formazan crystals were subsequently dissolved in DMSO. Optical density (OD) was recorded at 490 nm on a microplate reader to calculate the IC50 values.

[1] = test system: three human cancer cell lines (SF-268, MCF-7, and HepG2); experiment: MTT cytotoxicity, summary over three human cancer cell lines; assay type: cell-based; conditions: for IC50: Homo sapiens, read-out: IC50 values, range over three cell lines
Protocol: (§2) The cytotoxicity of all compounds against three human tumor cell lines, SF-268 (CNS cancer), MCF-7 (breast cancer), and HepG2 (hepatoma cancer), and normal cell line LX-2 was tested using the MTT assay. Adriamycin was used as a positive control. All cells were seeded into 96-well plates at 5 × 10^4 cells/ml and incubated at 37°C under a 5% CO2 atmosphere for 24 h. Then, the tested compounds were added. After 72 h, MTT solution was added into each well, which was further incubated. The cell-free supernatant was removed and formazan crystals were subsequently dissolved in DMSO. Optical density (OD) was recorded at 490 nm on a microplate reader to calculate the IC50 values.

SF-268 (CNS cancer) = experiment: MTT cytotoxicity assay, SF-268 cells; assay type: cell-based, human; conditions: Homo sapiens; for inhibition at 1 µM / inhibition at 2 µM / inhibition at 4 µM / inhibition at 8 µM / inhibition at 16 µM / inhibition at 32 µM / inhibition at 64 µM / inhibition at 128 µM: SF-268, 72 h, SF268 cells, triplicate values, read-out: cell inhibition; for inhibition at 1 µM: c 1.00 μM; for inhibition at 2 µM: c 2.00 μM; for inhibition at 4 µM: c 4.00 μM; for inhibition at 8 µM: c 8.00 μM; for inhibition at 16 µM: c 16.00 μM; for inhibition at 32 µM: c 32.00 μM; for inhibition at 64 µM: c 64.00 μM; for inhibition at 128 µM: c 128.00 μM; for IC50: SF-268, MTT, 72 h, mean ± SD (n = 3), read-out: IC50 SF268
Protocol: as §2

MCF-7 (breast cancer) = experiment: MTT cytotoxicity assay, MCF-7 cells; assay type: cell-based, human; conditions: Homo sapiens; for inhibition at 1 µM / inhibition at 2 µM / inhibition at 4 µM / inhibition at 8 µM / inhibition at 16 µM / inhibition at 32 µM / inhibition at 64 µM / inhibition at 128 µM: MCF7, 72 h, three replicates, read-out: cell inhibition; for inhibition at 1 µM: MCF-7, c 1.00 μM; for inhibition at 2 µM: MCF-7, c 2.00 μM; for inhibition at 4 µM: MCF-7, c 4.00 μM; for inhibition at 8 µM: MCF-7, c 8.00 μM; for inhibition at 16 µM: MCF-7, c 16.00 μM; for inhibition at 32 µM: MCF-7, c 32.00 μM; for inhibition at 64 µM: MCF-7, c 64.00 μM; for inhibition at 128 µM: MCF-7, c 128.00 μM; for IC50: MCF7, MTT, 72 h, mean ± SD (n = 3)
Protocol: as §1

HepG2 (hepatoma cancer) = experiment: MTT cytotoxicity assay, HepG2 cells; assay type: cell-based, human; conditions: Homo sapiens; for inhibition at 1 µM / inhibition at 2 µM / inhibition at 4 µM / inhibition at 8 µM / inhibition at 16 µM / inhibition at 32 µM / inhibition at 64 µM / inhibition at 128 µM: HepG2, 72 h, three replicates, read-out: cell inhibition; for inhibition at 1 µM: HepG2, c 1.00 μM; for inhibition at 2 µM: HepG2, c 2.00 μM; for inhibition at 4 µM: HepG2, c 4.00 μM; for inhibition at 8 µM: HepG2, c 8.00 μM; for inhibition at 16 µM: HepG2, c 16.00 μM; for inhibition at 32 µM: HepG2, c 32.00 μM; for inhibition at 64 µM: HepG2, c 64.00 μM; for inhibition at 128 µM: HepG2, c 128.00 μM; for IC50: HepG2, MTT, 72 h, mean ± SD (n = 3)
Protocol: as §2

SMILES	inhibition at 1 µM (normal cell line LX-2) [%]	inhibition at 2 µM (normal cell line LX-2) [%]	inhibition at 4 µM (normal cell line LX-2) [%]	inhibition at 8 µM (normal cell line LX-2) [%]	inhibition at 16 µM (normal cell line LX-2) [%]	inhibition at 32 µM (normal cell line LX-2) [%]	inhibition at 64 µM (normal cell line LX-2) [%]	inhibition at 128 µM (normal cell line LX-2) [%]	IC50 (normal cell line LX-2) [µM]	inhibition at 1 µM (SF-268 (CNS cancer)) [%]	inhibition at 2 µM (SF-268 (CNS cancer)) [%]	inhibition at 4 µM (SF-268 (CNS cancer)) [%]	inhibition at 8 µM (SF-268 (CNS cancer)) [%]	inhibition at 16 µM (SF-268 (CNS cancer)) [%]	inhibition at 32 µM (SF-268 (CNS cancer)) [%]	inhibition at 64 µM (SF-268 (CNS cancer)) [%]	inhibition at 128 µM (SF-268 (CNS cancer)) [%]	IC50 (SF-268 (CNS cancer)) [µM]	inhibition at 1 µM (MCF-7 (breast cancer)) [%]	inhibition at 2 µM (MCF-7 (breast cancer)) [%]	further results
CC(C)[C@@H](C)/C=C/[C@@H](C)[C@H]1CCC(=O)[C@]23CC(=O)C4=CC(=O)CC[C@]4(C)[C@H]2CC[C@]13C [compound 7, dankasterone A]	14.7	18.4	26.4	31.4	33.1	43.2	81.3	92.6	> 40	16.3	31.1	46.5	58.4	69.7	90.9	96.1	99.2	6.7 ± 0.7	35.5	47.2	activity on the normal cell line LX-2 (normal cell line LX-2): not active; cell inhibition against three human cancer cell lines, in words [1]: good cell inhibition; IC50 [1]: 3.6 to 15.8 µM; inhibition at 4 µM (MCF-7 (breast cancer)): 64.9%; inhibition at 8 µM (MCF-7 (breast cancer)): 72.1%; inhibition at 16 µM (MCF-7 (breast cancer)): 81%; inhibition at 32 µM (MCF-7 (breast cancer)): 98.2%; inhibition at 64 µM (MCF-7 (breast cancer)): 97.5%; inhibition at 128 µM (MCF-7 (breast cancer)): 98.3%; IC50 (MCF-7 (breast cancer)): 3.6 ± 1.1 µM; inhibition at 1 µM (HepG2 (hepatoma cancer)): 31.1%; inhibition at 2 µM (HepG2 (hepatoma cancer)): 39.6%; inhibition at 4 µM (HepG2 (hepatoma cancer)): 49%; inhibition at 8 µM (HepG2 (hepatoma cancer)): 76.9%; inhibition at 16 µM (HepG2 (hepatoma cancer)): 83.3%; inhibition at 32 µM (HepG2 (hepatoma cancer)): 98%; inhibition at 64 µM (HepG2 (hepatoma cancer)): 99%; inhibition at 128 µM (HepG2 (hepatoma cancer)): 98.5%; IC50 (HepG2 (hepatoma cancer)): 4.9 ± 0.9 µM
CC(C)[C@@H](C)C=C[C@@H](C)[C@H]1CC[C@@]2(O)C3=CC(=O)C4=CC(=O)CC[C@]4(C)[C@H]3CC[C@]12C [compound 8, 14α-hydroxyergosta-4,7,22-triene-3,6-dione]	13.6	19.2	28	35.9	41.6	48.5	73.4	90.3	> 40	21.4	30.2	44.3	46.8	81.4	85.3	92.4	97.3	8.3 ± 0.5	21.5	26.3	activity on the normal cell line LX-2 (normal cell line LX-2): not active; cell inhibition against three human cancer cell lines, in words [1]: good cell inhibition; IC50 [1]: 3.6 to 15.8 µM; inhibition at 4 µM (MCF-7 (breast cancer)): 35.6%; inhibition at 8 µM (MCF-7 (breast cancer)): 47.3%; inhibition at 16 µM (MCF-7 (breast cancer)): 72.4%; inhibition at 32 µM (MCF-7 (breast cancer)): 89.1%; inhibition at 64 µM (MCF-7 (breast cancer)): 97.3%; inhibition at 128 µM (MCF-7 (breast cancer)): 96.2%; IC50 (MCF-7 (breast cancer)): 11.4 ± 0.3 µM; inhibition at 1 µM (HepG2 (hepatoma cancer)): 20.3%; inhibition at 2 µM (HepG2 (hepatoma cancer)): 27.1%; inhibition at 4 µM (HepG2 (hepatoma cancer)): 34.1%; inhibition at 8 µM (HepG2 (hepatoma cancer)): 46.7%; inhibition at 16 µM (HepG2 (hepatoma cancer)): 58.6%; inhibition at 32 µM (HepG2 (hepatoma cancer)): 78.4%; inhibition at 64 µM (HepG2 (hepatoma cancer)): 89%; inhibition at 128 µM (HepG2 (hepatoma cancer)): 94.3%; IC50 (HepG2 (hepatoma cancer)): 15.8 ± 1.3 µM
CC(C)[C@@H](C)/C=C/[C@@H](C)C1CCC2C3=CC(=O)OC4=CC(=O)CC[C@]4(C)C3CC[C@@]21C (stereo partly drawn) [compound 9, fortisterol]	9.02	13.6	18.5	25.5	31.9	44.7	79.3	82.5	> 40	8.97	14.6	19.2	24.9	30.3	45.1	80.5	82.4	> 40	6.87	14.1	inhibition at 4 µM (MCF-7 (breast cancer)): 17.4%; inhibition at 8 µM (MCF-7 (breast cancer)): 21.5%; inhibition at 16 µM (MCF-7 (breast cancer)): 31.4%; inhibition at 32 µM (MCF-7 (breast cancer)): 43.2%; inhibition at 64 µM (MCF-7 (breast cancer)): 76.1%; inhibition at 128 µM (MCF-7 (breast cancer)): 86.4%; IC50 (MCF-7 (breast cancer)): > 40 µM; inhibition at 1 µM (HepG2 (hepatoma cancer)): 5.37%; inhibition at 2 µM (HepG2 (hepatoma cancer)): 11.1%; inhibition at 4 µM (HepG2 (hepatoma cancer)): 15.3%; inhibition at 8 µM (HepG2 (hepatoma cancer)): 20.5%; inhibition at 16 µM (HepG2 (hepatoma cancer)): 31.6%; inhibition at 32 µM (HepG2 (hepatoma cancer)): 48.2%; inhibition at 64 µM (HepG2 (hepatoma cancer)): 75.7%; inhibition at 128 µM (HepG2 (hepatoma cancer)): 89.3%; IC50 (HepG2 (hepatoma cancer)): > 40 µM
